The values that follow come from patent US4390613A, “Diffusion transfer photographic system utilizing substituted phenylmercaptoazoles” (Polaroid Corporation, priority 1981, dated 1983).

Read-outs that look alike come from different tables or passages of the source.

Data set [1] is described as follows: Ionization and stability in aqueous alkaline processing composition. Format: physicochemical. An excerpt:
However, it has been shown by experimentation that incorporating compound XI in a film unit according to the invention will provide advantageous results. Thus, it would appear that compound XI undergoes a change in aqueous alkaline processing composition and that the acetyl substituent is a precursor of a group which has the requisite properties described above which provide the desired results. […] It is therefore preferred to incorporate the compound elsewhere in the film unit, for example, in the photosensitive element.

Data set [2] in a line: Solubility product of the silver salts (Table II). It counts as physicochemical. The note with it: for Ksp: silver salt. An excerpt: Solubility product measurements were made for the silver salt of phenylmercaptotetrazole (PMT) at pH 13.5 and for the silver salt of compound II at pH 7 and pH 13.5 (above and below the pka of the oxime substituent).
Data set [3] in a line: Solubility of silver salts in presence of excess anion (Table III). Format: physicochemical. Here is the method:
The solubilities of the silver salts of PMT and compound II in the presence of excess amounts of their anions were measured at pH 7.0 and 13.5. Each solution was 4×10^-3 molar in silver. The results are shown in Table III wherein the solubility data is expressed in μmoles/liter of total silver.

For data set [4] the following is noted: silver salt, pH 7; Z. C. H. Tan, Photogr. Sci. Eng. 19, 17 (1975); cited from earlier work.

Regarding `CC(=O)c1ccc(-n2nnnc2S)cc1` [XI], the “stability in aqueous alkaline processing composition” value in data set [1] (about a week or more in processing composition) was “long term instability characteristics”. In addition, the “ionization of acetyl group to an anion” value in data set [1] (aqueous alkaline photographic processing composition) was “does not ionize to any appreciable extent”.
For `CC(=NO)c1ccc(-n2nnnc2S)cc1` [Compound II], the “effect of pH / ionization on solubility of the silver salt” value in data set [2] (pH 7 vs pH 13.5) is listed as “increased the solubility of the silver salt of compound II by an order of magnitude”. For the same compound, the Ksp was ~ 1 × 10^-16 in data set [2] (pH 7) and 2 × 10^-15 in data set [2] (pH 13.5). For the same compound, in data set [3], the “silver solvent behavior at high pH” value was “weak to moderate silver solvent at high pH”.
Regarding `Sc1nnnn1-c1ccccc1` [PMT, 1-phenyl-5-mercaptotetrazole, reference compound], the Ksp in data set [2] (pH 13.5) was 4 × 10^-16; in data set [4] it was 3 × 10^-16. The “silver solvent behavior at high pH” value in data set [3] is listed as “PMT is not”.
